Measured values: patent EP0227431A1, “Heterocyclic amides” (BEECHAM GROUP PLC, priority 1985, dated 1987)

What was measured:
[1] = tested on: Phospholipase A2 (Naja naja venom, Sigma); test: Inhibition of Phospholipase A2 Activity (Method A); assay type: biochemical; conditions: inhibition of arachidonic acid release, tested in triplicate
Procedure: Inhibition of Phospholipase A2 Activity
Enzyme: Phospholipase A2 (Naja naja venom, Sigma)
Substrate: Diarachidoyl phosphatidylcholine (10.6mg) and α-1-palmitoyl-2-[1-^14C]-arachidonyl phosphatidylcholine (0.5uCi; 52.9mCi/mMol) in 28ml of TrisHCl buffer=100mM, pH 8.7) ultrasonicated.
Assay: Incubations containing PLA2 (0.125ng) in Tris HC1 buffer (lOOmM, pH 8.7) and CaCl2 (4mM) were prepared on ice. Immediately prior to incubation at 37°C 5µl of DMSO or compound in DMSO were added. The final assay volume was 1.75ml. After 10 minutes at 37 °C 750µl of substrate was added, with mixing, and the incubation continued for a further 15 min. The reaction was terminated by placing on ice and adding 5ml CHCl3:MeOH (2:lv/v).
The lower organic phase was removed and stored under N2 at-20 °C until analysed. Analysis was by 1-dimensional t.l.c. on polygram Sil G sheets in the solvent system petroleum ether: diethyl ether: acetic acid (60:40:1,v/v). In this system the phospholipid remains at the origin and the arachidonic acid has an approximate Rf. value of 0.36. The areas of interest were cut from the plates and radioactivity determined by liquid scintillation counting.
All compounds were tested in triplicate.
Calculation: The radioactivity of the arachidonic acid is expressed as a percentage of the total dpm cut from the plate. The percentage inhibition of arachidonic acid release compared to that of the control was calculated after correction for the level of spontaneous release where: • x = % corrected mean arachidonic acid release in control • y = % corrected arachidionic acid release after inhibition • % inhibition [formula]
The mean of the triplicate samples was calculated giving z + standard deviation%.

[2] = molecular target: T1, 5-Lipoxygenase enzyme (10,000 g supernatant from RBL-1 cells) (Rattus norvegicus, UniProt P12527); test: Inhibition of 5-Lipoxygenase Activity (Method B); assay type: biochemical; conditions: decrease in formation of 5-HETE and 5,12-diHETE relative to control
T1 construct: 5-Lipoxygenase enzyme was prepared as a 10,000 g supernatant from RBL-1 cells; endogenous in cells; host or cells: RBL-1 cells (10,000 g supernatant, method of Jakschik)
T1 sequence (P12527 1-673): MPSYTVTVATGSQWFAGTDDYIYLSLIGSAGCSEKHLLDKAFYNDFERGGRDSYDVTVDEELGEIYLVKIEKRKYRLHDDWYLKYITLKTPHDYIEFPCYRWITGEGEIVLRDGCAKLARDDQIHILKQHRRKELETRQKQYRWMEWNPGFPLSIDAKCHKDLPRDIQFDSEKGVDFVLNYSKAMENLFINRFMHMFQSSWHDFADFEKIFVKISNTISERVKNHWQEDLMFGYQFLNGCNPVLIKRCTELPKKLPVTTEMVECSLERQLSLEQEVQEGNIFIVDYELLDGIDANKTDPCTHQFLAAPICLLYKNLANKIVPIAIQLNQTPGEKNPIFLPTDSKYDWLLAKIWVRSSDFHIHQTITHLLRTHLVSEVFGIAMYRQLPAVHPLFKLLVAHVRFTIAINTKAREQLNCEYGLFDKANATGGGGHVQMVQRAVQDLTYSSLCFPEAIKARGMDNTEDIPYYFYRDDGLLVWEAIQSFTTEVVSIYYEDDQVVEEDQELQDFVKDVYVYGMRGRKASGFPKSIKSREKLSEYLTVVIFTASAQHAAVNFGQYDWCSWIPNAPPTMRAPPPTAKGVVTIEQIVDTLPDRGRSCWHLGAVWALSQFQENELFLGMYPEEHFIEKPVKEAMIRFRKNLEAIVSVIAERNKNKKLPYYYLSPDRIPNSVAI
Procedure: Inhibition of 5-Lipoxygenase Activity
5-Lipoxygenase enzyme was prepared as a 10,000 g supernatant from RBL-1 cells by the method of Jakschik [Jakschik, B.A., F.F. Sun, L.M. Lee, and M.M.Steinhoff, 1980, Biochem. Biophys. Res. Comm. 95, 103]. The 10,000 g supernatant was diluted with homogenization buffer to the equivalent of 1.5 - 2.5 x 10^7 cells. ml-^1 and made 2mM with respect to CaCl2. Aliquots of 0.5 ml were then dispensed into tubes, and incubated at 29 °C with 5 µl ethanol or compound in ethanol at the desired concentration for 2 min. Then [1-^14C] arachidonic acid was added in buffer to give a final concentration of 6.3 uM and 0.2 µCi per incubation, and the reaction continued at 29 °C for 2 min. The reaction was terminated by adding 1 ml of acetone and cooling on ice, 0.5 ml of ice-cold saline and 10 µl of 2N formic acid were added, and the mixture was extracted with 2 x 2 ml of chloroform. The extract was stored under N2at -20°C until analysis by chromatography. Activity was measured as the percentage of total radioactivity found in 5-HETE and 5,12-diHETE, and inhibition calculated as the decrease in formation of the sum of these two species in compound-treated incubates relative to control incubates.

COc1ccc(C=CC(=O)Nc2ccsc2C(=O)O)cc1OC [Example 15, 3-[N-(3,4-Dimethoxycinnamoyl)amino]thiophene-2-carboxylic acid]
Phospholipase A2 Inhibition at 20µM (%) [1]: 10%
inhibition at 20 µM [2]: 0%

COC(=O)c1sc(-c2ccc(Cl)cc2)cc1NC(=O)C=Cc1ccc(OC(C)=O)c(OC(C)=O)c1 [Example 16, Methyl-5-(4-chlorophenyl)-3-(3,4-diacetoxycinnamoyl-amino)-thiophene-2-carboxylate]
inhibition at 20 µM [2]: 60%

O=C(C=Cc1ccc(O)c(O)c1)Nc1ccsc1C(=O)O [Example 12]
Phospholipase A2 Inhibition at 20µM (%) [1]: 36%
inhibition at 20 µM [2]: 88%

COC(=O)c1sccc1NC(=O)C=Cc1ccc(O)c(O)c1 [Example 7]
Phospholipase A2 Inhibition at 20µM (%) [1]: 84%
inhibition at 20 µM [2]: 93%

COC(=O)c1sccc1NC(=O)C=Cc1ccc(O)c(OC)c1 [Example 8]
Phospholipase A2 Inhibition at 20µM (%) [1]: 26%
inhibition at 20 µM [2]: 98%

O=C(C=Cc1ccc(O)c(O)c1)Nc1ncccc1C(=O)O [Example 14, 2-[N-(3,4-dihydroxycinnamoyl)amino]pyridine 3-carboxylic acid]
inhibition at 20 µM [2]: 67%

CCOC(=O)c1cccnc1NC(=O)C=Cc1ccc(O)c(O)c1 [Example 10, Ethyl-2 [N-(3,4-dihydroxycinnamoyl)amino]pyridine-3-carboxylate]
Phospholipase A2 Inhibition at 20µM (%) [1]: 10%
inhibition at 20 µM [2]: 95%

CCOC(=O)c1c(NC(=O)C=Cc2ccc(O)c(O)c2)sc2c1CCCC2 [Example 11, Ethyl-2[N-3,4-dihydroxycinnamoyl)amino]4,5,6,7-tetrahydrobenzo [bj thiophene-3-carboxylate]
Phospholipase A2 Inhibition at 20µM (%) [1]: 92%
inhibition at 20 µM [2]: 91%

COC(=O)c1sccc1NC(=O)C=Cc1ccc(OC)c(OC)c1 [Example 6, Methyl-3[N-(3,4-dimethoxycinnamoyl)amino]thiophene-2-carboxylate]
Phospholipase A2 Inhibition at 20µM (%) [1]: 31%
inhibition at 20 µM [2]: 81%

COc1cc(C=CC(=O)Nc2ccsc2C(=O)O)ccc1O [Example 13, 3-[N-(4-hydroxy-3-methoxycinnamoyl)-amino]thiophene-2-carboxylic acid.]
Phospholipase A2 Inhibition at 20µM (%) [1]: 26%
inhibition at 20 µM [2]: 64%

CCOC(=O)c1c[nH]nc1NC(=O)C=Cc1ccc(O)c(O)c1 [Example 9, Ethyl 3-[N-(3,4-dihydroxycinnamol)amino]pyrazole-4-carboxylate]
Phospholipase A2 Inhibition at 20µM (%) [1]: 71%
inhibition at 20 µM [2]: 97%
